What was measured:
[1] = viability of peripheral blood mononuclear cells; type: cell-based, human; conditions: human, healthy donor PBMCs
Procedure: (§1) The nitrostyrene 11h was evaluated for its cytotoxic effect on healthy donor peripheral blood mononuclear cells (PBMCs) to determine the selective toxicity of compounds containing the nitrostyrene pharmacophore on malignant BL cell lines over normal blood cells. Compound 11h was evaluated at 1 μM and 10 μM concentrations over a 24 h treatment time (Supplementary Information, Table S8).
(§2) Cells were seeded at a density of 2.5 × 10^4 cells/well (MCF-7, MDA-MB-231 cells), 1 × 10^4 cells/well (HL-60 cells), 1–5 × 10^4 cells per well (BL MUTU-I, DG-75 cells) and 2 × 10^5 cells/well [HG-3, PGA-1 (CLL cells)], Ramos, BJAB (BL cells) (200 μL per well), in 96-well plates. Cells were treated with the desired drug concentration for the appropriate time for each cell type, and the samples were incubated as required. alamarBlue (20 μL) was then added to each well and the samples further incubated in the dark at 37 °C for 4 h. Wells containing only reagent and cell culture medium in the absence of cells were used as blank controls. Ethanol was used as a vehicle, and cells were treated with 1% ethanol (v/v) in all experiments. The 96-well plates were analysed on a fluorescence plate reader (SpectraMax Gemini, Molecular Devices) (emission and excitement wavelengths of 590 nm and 544 nm, respectively), and the fluorescence was recorded. The decrease in cell viability was then calculated with reference to the vehicle samples (100% viability). EMEM medium with the addition of alamarBlue was used as a blank. Vehicle-treated cells were considered to be 100% viable, and the viabilities of each compound was calculated accordingly. […] All biochemical assays were performed in triplicate on at least three independent occasions, and the mean values were determined.
(§3) Peripheral blood was obtained from healthy donors (n = 2) after informed consent was received. The blood was then placed into a 50 mL falcon tube and diluted with an equal volume of phosphate-buffered saline (PBS). PBMCs were isolated using density gradient centrifugation using LymphoPrep as described previously Approval for this study was obtained from the School of Pharmacy and Pharmaceutical Sciences Trinity College Dublin Research Ethics Committee (2020-06-01-MS).

[2] = test system: peripheral blood mononuclear cells (PBMCs); experiment: viability of peripheral blood mononuclear cells; type: cell-based, human; conditions: 24 h, healthy donor PBMCs
Procedure: as §1, §2, §3

MUTU-I BL cells = experiment: Annexin V/PI apoptotic assay (FACS); type: cell-based; conditions: 10 µM, 24 h, total (early + late) apoptosis
DG-75 cells = test system: DG-75 cells; set-up: method as in earlier work; conditions: nitrostyrenes and taxol, MTT assay, reported data; cited from earlier work
[3] = test system: DG-75 Burkitt’s lymphoma cell line; conditions: nitrostyrenes, 1 µM, 48 h; cited from earlier work
[4] = test system: HL-60 promyelocytic leukaemia cells; experiment: alamarBlue cell viability assay; conditions: Homo sapiens, HL-60, 24 h

Work on C/C(=C\c1cccc(Cl)c1)[N+](=O)[O-] [Compound 11h] yielded a viability at 24 h, 1 µM ([1]; 1 µM) of 74%, a viability at 24 h, 10 µM ([1]; 10 µM) of 34.1% and a PBMCs % viability ([2]; 1 µM) of 73.66±3.725%. For the same compound, the PBMCs % viability ([2]; 10 µM) was 34.08±9.587%, the “MUTU-I Apoptosis (%)” value (MUTU-I BL cells) was 82.6% and the IC50 (DG-75 cells) was 2250 nM. For the same compound, the “% Viable Cells Remaining DG-75 48 h 1 µM” value [3] was 84.50%, the viability at 1 µM ([4]; read-out: % Viable Cells Remaining HL60 24 h 1 µM) was 78.2% and the viability at 10 µM ([4]; read-out: % Viable Cells Remaining HL60 24 h 10 µM) was 6.8%.

— publication PMC10746112, “Synthesis and Pro-Apoptotic Effects of Nitrovinylanthracenes and Related Compounds in Chronic Lymphocytic Leukaemia (CLL) and Burkitt’s Lymphoma (BL)” (Molecules, 2023)
